Consider 7 compounds from patent publication US20260184706A1, “PHENYLSULFONAMIDE DERIVATIVES, PREPARATION METHOD THEREFOR, AND PHARMACEUTICAL COMPOSITION FOR PREVENTION OR TREATMENT OF CANCER CONTAINING SAME AS ACTIVE INGREDIENT” (Korea Research Institute of Chemical Technology, priority 2022, published 2026).

Bounds are passed on as bounds.

Assay [1] concerns the target T1, phosphorylated GCN2 (Homo sapiens, UniProt Q9P2K8).
T1 construct: endogenous in cells; host or cells: HT-1080
Kind of assay: Inhibition of phosphorylated GCN2 under amino acid deficiency in HT-1080 cells, Western blot. In kind it is cell-based. The following applies: compound 50 nM, 24 hours; for Phospho-GCN2 inhibition: symbols ◯ / X not defined. How it is done:
<Experimental Example 5> Evaluation of Inhibitory Efficacy of ISR-Related Kinase GCN2 Under Amino Acid Deficiency Condition Using Western Blot
HT-1080 cells, a human fibrosarcoma cell line, were cultured in RPMI-1640 medium supplemented with 10% FBS, penicillin (penicillin; 100 IU/ml), and streptomycin (streptomycin; 100 μg/ml). Cells (1×10^6 cells/ml) were seeded onto 100 mm plates (polypropylene tissue culture plate) and incubated for 24 hours in a 37° C., 5% CO2 incubator before being used for experiments.
The following method was used to achieve amino acid deficiency conditions in cells. After 24 hours of cell culture, the cells were cultured in amino acids and L-glutamine-free RPMI-1640 medium supplemented with 10% FBS, penicillin (100 IU/ml), and streptomycin (100 μg/ml). After 24 hours of cell culture in RPMI-1640 without amino acids and L-glutamine, the compound prepared at a concentration of 50 nM was dispensed onto each plate and cultured for 24 hours in a 37° C., 5% CO2 incubator.
In order to measure the signal transduction inhibitory efficacy of GCN among the ISR-related kinases according to the present invention, the following experiment was performed using SDS-PAGE. The fibrosarcoma cell line HT-1080 cells cultured on plates as described above were washed with PBS after removing the culture medium. After removing PBS, the cells were lysed by adding a radio-immunoprecipitation assay buffer (RIPA buffer) containing 50 mM Tris (pH 7.4), 150 mM NaCl, 1% NP-40, 0.5% sodium deoxycholate, 2 mM sodium fluoride, 2 mM EDTA, 0.1% SDS, and a protease/phosphatase inhibitor cocktail to the plate. After centrifugation at 4° C., 13,000×g for 15 minutes, the protein in the upper layer was collected, and the protein concentration was measured at 562 nm using BCA (bicinchoninc acid) reagent, and the amount of protein in all samples was prepared at 20-50 μg.
After making the total volume the same using the sample buffer and RIPA buffer, it was heated at 97° C. for 5 minutes. Then, electrophoresis was performed on 8% or 12% SDS-PAGE at 80 V for 30 minutes and at 160 V for 1 hour and 30 minutes. After electrophoresis, the SDS-PAGE gel was transferred to an NC membrane (nitrocellulose membrane) at 90 V for 2 hours. The NC membrane was placed in TBST (tris buffer saline tween-20; 20 mM tris, 137 mM sodium chloride, 0.1% tween-20, pH 8.0) containing 5% non-fat skim milk, placed on a shaker, and reacted at room temperature for 1 hour.
Each primary antibody was diluted in TBST containing 5% non-fat skim milk, poured onto the NC membrane, and reacted at 4° C. for 24 hours. The membrane was washed three times for 10 minutes each with TBST. The secondary antibodies (anti-rabbit IgG and anti-mouse IgG labeled with horseradish peroxidase (HRP)) were diluted in TBST containing 5% non-fat skim milk and reacted with the membrane at room temperature for 1 hour. Upon completion of the reaction, the membrane was washed three times with TBST for 10 minutes each. Protein expression bands were detected by a chemiluminescence image analyzer (Image Quant LAS 500) after the ECL solution was reacted with the NC membrane.
GCN2, a key kinase of the integrated stress response (ISR), is phosphorylated in response to amino acid deficiency.
For orientation: In western blotting, separated proteins are transferred to a membrane and probed.

Assay [2] addresses recombinant human GCN2 protein (Homo sapiens, UniProt Q9P2K8). Kind of assay: General control nonderepressible 2 (GCN2) inhibitory capacity, 33P-ATP filter assay. The class given is biochemical. The following applies: recombinant human GCN2, 70 uM [gamma-33P-ATP], 40 minutes, room temperature.
In assay [3] the target is recombinant human PKR protein (Homo sapiens, UniProt P19525). Kind of assay: Protein kinase R (PKR) inhibitory capacity, 33P-ATP filter assay. The class given is biochemical. The note with it: 15 uM [gamma-33P-ATP], 40 minutes, room temperature. How it is done:
<Experimental Example 4> Evaluation of Protein Kinase R (PKR) Inhibitory Capacity
(§1) A recombinant human PKR protein was mixed with the compound in a reaction solution (8 mM MOPS pH 7.0, 0.2 mM EDTA, 20 uM RSRSRSRSRSRSRSR, 10 mM Magnesium acetate, 15 uM [gamma-33P-ATP]) and reacted at room temperature for 40 minutes. Then, the reaction was terminated by adding phosphoric acid (0.5%) to the reaction mixture, and 10 ul of the reaction solution was dropped onto a P30 filter. The filter was washed four times in a 0.425% phosphoric acid solution for 4 minutes, then washed once more in methanol, dried, and the PKR activity was measured by scintillation counting. […] The compound was diluted by 1/3 from the highest concentration of 1 uM and treated with a total of 9 concentrations to evaluate the degree of inhibition.

The target of assay [4] is recombinant human HRI protein (Homo sapiens, UniProt Q9BQI3). Kind of assay: eIF2-alpha kinase heme-regulated inhibitor (HRI) inhibitory capacity, 33P-ATP filter assay. The following applies: 45 uM [gamma-33P-ATP], 40 minutes, room temperature. In kind it is biochemical. How it is done:
<Experimental Example 3> Evaluation of eIF2-Alpha Kinase Heme-Regulated Inhibitor (HRI) Inhibitory Capacity
A recombinant human HRI protein was mixed with the compound in a reaction solution (50 mM Tris/HCl pH 7.5, 0.04 mM EDTA, 300 uM RSRSRSRSRSRSRSR, 10 mM Magnesium acetate, 45 uM [gamma-33P-ATP]) and reacted at room temperature for 40 minutes. Then, the reaction was terminated by adding phosphoric acid (0.5%) to the reaction mixture, and […] of the reaction solution was dropped onto a P30 filter. The filter was washed four times in a 0.425% phosphoric acid solution for 4 minutes, then […] washed once more in methanol, dried, and the HRI activity was measured by scintillation counting. […] The compound was diluted by 1/3 from the highest concentration of 1 uM and treated with a total of 9 concentrations to evaluate the degree of inhibition.

Assay [5] has as its target T2, recombinant human PERK protein (Homo sapiens, UniProt Q9NZJ5).
T2 sequence (Q9NZJ5 30-1116): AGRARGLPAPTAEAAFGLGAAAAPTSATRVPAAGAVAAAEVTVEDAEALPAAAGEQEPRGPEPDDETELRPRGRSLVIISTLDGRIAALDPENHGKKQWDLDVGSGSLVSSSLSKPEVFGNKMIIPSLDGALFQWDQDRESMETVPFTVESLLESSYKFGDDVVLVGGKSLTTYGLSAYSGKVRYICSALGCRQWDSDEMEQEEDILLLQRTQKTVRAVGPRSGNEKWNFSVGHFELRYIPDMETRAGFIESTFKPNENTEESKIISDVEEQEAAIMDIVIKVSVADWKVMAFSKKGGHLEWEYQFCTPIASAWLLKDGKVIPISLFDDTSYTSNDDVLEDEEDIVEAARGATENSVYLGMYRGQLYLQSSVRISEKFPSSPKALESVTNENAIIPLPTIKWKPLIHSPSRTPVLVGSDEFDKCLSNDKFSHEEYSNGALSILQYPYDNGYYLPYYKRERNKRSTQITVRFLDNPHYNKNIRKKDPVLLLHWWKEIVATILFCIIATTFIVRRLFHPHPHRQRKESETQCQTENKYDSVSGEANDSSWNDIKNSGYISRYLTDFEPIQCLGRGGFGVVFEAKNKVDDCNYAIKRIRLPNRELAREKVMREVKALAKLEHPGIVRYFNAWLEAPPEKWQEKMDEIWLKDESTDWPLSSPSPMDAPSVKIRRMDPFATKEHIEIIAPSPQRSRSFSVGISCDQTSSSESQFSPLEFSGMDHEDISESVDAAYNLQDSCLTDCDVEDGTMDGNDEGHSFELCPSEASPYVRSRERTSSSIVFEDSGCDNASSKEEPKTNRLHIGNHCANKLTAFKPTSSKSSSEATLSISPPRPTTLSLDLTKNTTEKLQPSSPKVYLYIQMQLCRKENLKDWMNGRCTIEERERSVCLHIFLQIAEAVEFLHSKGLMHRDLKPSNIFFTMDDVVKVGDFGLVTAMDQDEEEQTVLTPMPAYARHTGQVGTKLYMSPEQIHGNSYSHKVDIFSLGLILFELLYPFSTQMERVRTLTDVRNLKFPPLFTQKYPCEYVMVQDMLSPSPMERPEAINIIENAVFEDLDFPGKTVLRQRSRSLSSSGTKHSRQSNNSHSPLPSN
Kind of assay: PKR-like endoplasmic reticulum kinase (PERK) inhibitory capacity, 33P-ATP filter assay. In kind it is biochemical. The following applies: 15 uM [gamma-33P-ATP], 40 minutes, room temperature. How it is done:
<Experimental Example 1> Evaluation of PKR-Like Endoplasmic Reticulum Kinase (PERK) Inhibitory Capacity
as §1, with “PERK” for “PKR”, “300” for “20”

T1 sequence (Q9P2K8 whole entry): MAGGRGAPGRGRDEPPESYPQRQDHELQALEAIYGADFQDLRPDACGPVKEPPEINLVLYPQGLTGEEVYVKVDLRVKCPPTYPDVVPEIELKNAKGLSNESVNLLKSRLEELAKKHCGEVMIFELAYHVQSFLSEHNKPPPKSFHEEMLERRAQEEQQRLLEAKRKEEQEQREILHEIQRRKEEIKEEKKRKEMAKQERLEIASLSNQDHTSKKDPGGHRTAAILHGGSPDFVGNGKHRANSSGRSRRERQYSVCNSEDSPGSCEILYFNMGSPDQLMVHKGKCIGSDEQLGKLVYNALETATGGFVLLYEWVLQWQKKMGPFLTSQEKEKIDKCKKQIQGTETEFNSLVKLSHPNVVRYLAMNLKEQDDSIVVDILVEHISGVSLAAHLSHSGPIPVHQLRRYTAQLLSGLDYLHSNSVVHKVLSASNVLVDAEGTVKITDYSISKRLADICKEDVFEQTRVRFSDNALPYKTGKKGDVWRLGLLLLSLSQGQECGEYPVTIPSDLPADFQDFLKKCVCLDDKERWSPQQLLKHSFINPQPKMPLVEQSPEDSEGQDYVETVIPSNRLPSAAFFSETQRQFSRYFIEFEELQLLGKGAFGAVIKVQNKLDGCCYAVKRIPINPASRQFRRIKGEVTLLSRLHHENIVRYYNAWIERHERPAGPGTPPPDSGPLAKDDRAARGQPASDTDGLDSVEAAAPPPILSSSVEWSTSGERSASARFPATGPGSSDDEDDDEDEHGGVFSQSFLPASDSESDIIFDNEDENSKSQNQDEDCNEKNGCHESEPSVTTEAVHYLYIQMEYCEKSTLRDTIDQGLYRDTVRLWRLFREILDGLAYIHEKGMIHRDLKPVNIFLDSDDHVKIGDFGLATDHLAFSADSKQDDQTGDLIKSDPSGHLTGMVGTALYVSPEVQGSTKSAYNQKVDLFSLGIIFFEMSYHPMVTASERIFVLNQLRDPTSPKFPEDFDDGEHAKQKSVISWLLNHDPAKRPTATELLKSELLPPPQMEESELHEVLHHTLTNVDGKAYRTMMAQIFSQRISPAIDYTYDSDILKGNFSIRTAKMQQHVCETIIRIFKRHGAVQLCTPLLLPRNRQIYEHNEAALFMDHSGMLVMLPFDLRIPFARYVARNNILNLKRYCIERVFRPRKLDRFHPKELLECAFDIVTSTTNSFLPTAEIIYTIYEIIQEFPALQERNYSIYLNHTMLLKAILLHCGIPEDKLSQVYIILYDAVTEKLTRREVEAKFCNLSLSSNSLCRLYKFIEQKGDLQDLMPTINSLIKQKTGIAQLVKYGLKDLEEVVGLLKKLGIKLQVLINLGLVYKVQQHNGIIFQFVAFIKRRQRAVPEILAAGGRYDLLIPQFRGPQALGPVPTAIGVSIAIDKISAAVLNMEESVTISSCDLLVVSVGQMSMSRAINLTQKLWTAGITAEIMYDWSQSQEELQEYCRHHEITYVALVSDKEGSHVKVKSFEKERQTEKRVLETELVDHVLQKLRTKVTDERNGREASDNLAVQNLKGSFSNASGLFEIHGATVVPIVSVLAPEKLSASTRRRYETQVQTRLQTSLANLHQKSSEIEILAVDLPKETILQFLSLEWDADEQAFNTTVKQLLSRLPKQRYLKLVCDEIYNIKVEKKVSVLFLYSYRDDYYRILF
Chain of recombinant human GCN2 protein (Q9P2K8 whole entry): as above
Chain of recombinant human PKR protein (P19525 whole entry): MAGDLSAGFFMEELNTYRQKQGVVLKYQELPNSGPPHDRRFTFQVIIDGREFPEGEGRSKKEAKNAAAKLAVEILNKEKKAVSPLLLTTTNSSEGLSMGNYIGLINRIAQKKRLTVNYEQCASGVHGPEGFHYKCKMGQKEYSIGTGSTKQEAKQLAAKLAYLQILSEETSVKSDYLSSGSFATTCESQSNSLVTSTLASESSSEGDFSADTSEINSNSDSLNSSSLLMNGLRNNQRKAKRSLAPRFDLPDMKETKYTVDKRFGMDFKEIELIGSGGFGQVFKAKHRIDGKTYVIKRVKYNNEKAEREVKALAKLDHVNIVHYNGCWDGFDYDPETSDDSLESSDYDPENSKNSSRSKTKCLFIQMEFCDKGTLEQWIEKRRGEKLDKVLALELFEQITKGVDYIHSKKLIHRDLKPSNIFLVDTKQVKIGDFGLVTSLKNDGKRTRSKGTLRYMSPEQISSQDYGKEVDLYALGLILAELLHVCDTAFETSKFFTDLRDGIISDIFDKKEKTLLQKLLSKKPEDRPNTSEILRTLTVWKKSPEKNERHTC
Chain of recombinant human HRI protein (Q9BQI3 whole entry): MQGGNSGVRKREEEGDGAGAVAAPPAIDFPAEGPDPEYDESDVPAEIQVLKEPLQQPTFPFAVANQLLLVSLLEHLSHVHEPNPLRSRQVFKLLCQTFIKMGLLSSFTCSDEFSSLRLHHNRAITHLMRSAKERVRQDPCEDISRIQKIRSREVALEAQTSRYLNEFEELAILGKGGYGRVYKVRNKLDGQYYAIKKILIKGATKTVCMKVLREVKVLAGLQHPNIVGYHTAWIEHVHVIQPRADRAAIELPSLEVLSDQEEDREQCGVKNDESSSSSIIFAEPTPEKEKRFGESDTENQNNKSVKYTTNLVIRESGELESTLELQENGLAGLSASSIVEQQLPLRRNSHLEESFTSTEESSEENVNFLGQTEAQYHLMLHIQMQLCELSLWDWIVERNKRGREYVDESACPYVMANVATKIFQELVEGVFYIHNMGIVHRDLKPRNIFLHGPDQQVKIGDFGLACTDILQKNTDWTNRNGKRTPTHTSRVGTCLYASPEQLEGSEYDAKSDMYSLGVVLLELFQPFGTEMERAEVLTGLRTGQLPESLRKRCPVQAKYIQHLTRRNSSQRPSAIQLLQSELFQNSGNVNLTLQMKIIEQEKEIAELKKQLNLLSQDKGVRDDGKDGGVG

In general, IC50 refers to the concentration at which inhibition is half-maximal. For `COc1ncc(Cl)cc1S(=O)(=O)Nc1ccc(F)c(-n2c(=O)c3cnc(N)nc3n(C3CC3)c2=O)c1F` [Example 65, N-(3-(7-amino-1-cyclopropyl-2,4-dioxo-1,4-dihydropyrimido[4,5-d]pyrimidin-3(2H)-yl)-2,4-difluorophenyl)-5-chloro-2-methoxypyridine-3-sulfonamide], in assay [1], the “inhibitory effect on the phosphorylated GCN2” value (“inhibitory effect” for short) is on record as “excellent inhibitory effect” and the Phospho-GCN2 inhibition entry is “◯”. Moreover, in assay [2], the IC50 fell in the range of 300 to 1000 nM.

Take `Nc1ncc2c(=O)n(-c3c(F)ccc(NS(=O)(=O)c4cc(Cl)ccc4Cl)c3F)c(=O)n(C3CC3)c2n1` [Example 63, N-(3-(7-amino-1-cyclopropyl-2,4-dioxo-1,4-dihydropyrimido[4,5-d]pyrimidin-3(2H)-yl)-2,4-difluorophenyl)-2,5-dichlorobenzenesulfonamide]: in assay [1], the “inhibitory effect” value was “excellent inhibitory effect” and the Phospho-GCN2 inhibition result is listed as “◯”. In assay [2], the IC50 lay in the range of 300 to 1000 nM.

For `COc1ncc(C#N)cc1S(=O)(=O)Nc1ccc(F)c(-n2ccc3nc(N)ncc3c2=O)c1F` [Example 28, N-(3-(2-amino-5-oxopirido[4,3-d]pyrimidin-6(5H)-yl)-2,4-difluorophenyl)-5-cyano-2-methoxypyridine-3-sulfonamide], the IC50 is more than 1000 nM in assay [3], 100 to 300 nM in assay [4], less than 100 nM in assay [2] and less than 100 nM in assay [5].

As for `Nc1ncc2c(=O)n(-c3c(F)ccc(NS(=O)(=O)c4cccc5ccccc45)c3F)c(=O)n(C3CC3)c2n1` [Example 64, N-(3-(7-amino-1-cyclopropyl-2,4-dioxo-1,4-dihydropyrimido[4,5-d]pyrimidin-3(2H)-yl)-2,4-difluorophenyl)naphthalene-1-sulfonamide], in assay [1], the “inhibitory effect” value is “excellent inhibitory effect” and the Phospho-GCN2 inhibition result is on record as “◯”. For the same compound, in assay [2], the IC50 lay in the range of 300 to 1000 nM.

Take `COc1ncc(Cl)cc1S(=O)(=O)Nc1ccc(F)c(-n2ccc3nc(N)ncc3c2=O)c1F` [Example 26, N-(3-(2-amino-5-oxopirido[4,3-d]pyrimidin-6(5H)-yl)-2,4-difluorophenyl)-5-chloro-2-methoxypyridine-3-sulfonamide]: in assay [1], the “inhibitory effect” value is given as “excellent inhibitory effect” and the Phospho-GCN2 inhibition entry is “◯”. The IC50 in assay [2] is less than 100 nM.

`COc1ncc(Cl)cc1S(=O)(=O)Nc1ccc(F)c(-n2nc(C)c3nc(N)ncc3c2=O)c1F` [Example 38, N-(3-(2-amino-8-methyl-5-oxopyrimido[4,5-d]pyridazine-6(5H)-yl)-2,4-difluorophenyl)-5-chloro-2-methoxypyridine-3-sulfonamide]: in assay [1], the Phospho-GCN2 inhibition result is listed as “◯”. Further, the IC50 in assay [2] lay in the range of 100 to 300 nM.

On to `Cn1c(=O)n(-c2c(F)ccc(NS(=O)(=O)c3cc(Cl)cnc3Cl)c2F)c(=O)c2cnc(N)nc21` [Example 57, N-(3-(7-amino-1-methyl-2,4-dioxo-1,4-dihydropyrimido[4,5-d]pyrimidin-3(2H)-yl)-2,4-difluorophenyl)-2,5-dichloropyridine-3-sulfonamide], for which the IC50 was 300 to 1000 nM in assay [3], 100 to 300 nM in assay [4], less than 100 nM in assay [2] and less than 100 nM in assay [5].
